pIC50: −log10 of the molar value.
Assays:
[1] = target: T1, Voltage-gated inwardly rectifying potassium channel KCNH2 (Homo sapiens, UniProt Q12809)
Description: Inhibition of human ERG expressed in HEK293 cells by Barracuda automated patch clamp assay

[2] = target: T1, Voltage-gated inwardly rectifying potassium channel KCNH2; remark: listed apart in the source
Description: Inhibition of human ERG expressed in HEK293 cells by Q-patch assay

physchem = conditions: buffer, pH 7.4, logD
[3] = Protein binding in human blood at 1 ug/ml after 4 hrs by LC-MS/MS analysis; format: ADME, tissue-based; conditions: at 1 µg/mL, read-out: PB (converted)
[4] = Toxicity in rabbit cardiac ventricular wedge assessed as increase in QT interval prolongation at 1 to 3 uM; format: tissue-based, Oryctolagus cuniculus, Cardiac ventricle

T1 sequence (Q12809 whole entry): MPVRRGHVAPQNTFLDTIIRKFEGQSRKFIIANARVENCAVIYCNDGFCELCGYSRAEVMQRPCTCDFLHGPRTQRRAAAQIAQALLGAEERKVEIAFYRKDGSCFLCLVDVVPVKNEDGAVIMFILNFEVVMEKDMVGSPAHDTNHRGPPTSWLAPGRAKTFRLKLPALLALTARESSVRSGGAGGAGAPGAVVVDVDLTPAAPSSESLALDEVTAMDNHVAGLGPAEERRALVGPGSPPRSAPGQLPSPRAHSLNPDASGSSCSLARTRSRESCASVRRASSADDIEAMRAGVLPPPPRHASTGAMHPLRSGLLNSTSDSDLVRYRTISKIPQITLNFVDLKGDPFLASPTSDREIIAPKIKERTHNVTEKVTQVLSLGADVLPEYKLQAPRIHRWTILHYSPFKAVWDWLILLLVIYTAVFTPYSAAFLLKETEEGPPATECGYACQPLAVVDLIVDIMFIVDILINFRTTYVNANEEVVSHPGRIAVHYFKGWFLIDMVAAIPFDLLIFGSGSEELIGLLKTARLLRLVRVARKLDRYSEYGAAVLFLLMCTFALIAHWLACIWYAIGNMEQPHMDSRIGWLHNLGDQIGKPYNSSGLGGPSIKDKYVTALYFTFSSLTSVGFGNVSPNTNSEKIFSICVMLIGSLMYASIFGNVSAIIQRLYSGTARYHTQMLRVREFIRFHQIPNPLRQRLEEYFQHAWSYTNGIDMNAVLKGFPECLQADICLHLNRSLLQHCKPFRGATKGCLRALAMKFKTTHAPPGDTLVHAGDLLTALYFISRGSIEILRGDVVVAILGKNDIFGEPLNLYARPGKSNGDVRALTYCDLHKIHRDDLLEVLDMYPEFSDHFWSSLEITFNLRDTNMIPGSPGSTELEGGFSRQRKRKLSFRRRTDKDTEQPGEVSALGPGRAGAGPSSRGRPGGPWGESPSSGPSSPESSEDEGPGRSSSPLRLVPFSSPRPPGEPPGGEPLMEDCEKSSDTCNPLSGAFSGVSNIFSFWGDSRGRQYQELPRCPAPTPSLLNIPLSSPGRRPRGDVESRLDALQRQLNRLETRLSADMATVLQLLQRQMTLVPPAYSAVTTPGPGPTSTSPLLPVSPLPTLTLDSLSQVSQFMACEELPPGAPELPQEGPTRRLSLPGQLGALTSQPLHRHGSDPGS

Q: What does the source list for `O=C(O)C[C@H](CN1CC[C@@H](CCc2ccc3c(n2)NCCC3)C1)c1cccc(OC2COC2)c1`?
A: pIC50 [1]: < 4.30; pIC50 [2]: < 4.50; logD (physchem): 2.07

Q: For `O=C(O)C[C@H](CN1CC[C@@H](CCc2ccc3c(n2)NCCC3)C1)c1cccc(-n2ccnn2)c1`, which fraction unbound at 4 h, 1 ug/ml [3] is on record?
A: Its fraction unbound at 4 h, 1 ug/ml is 0.28.

Q: What about the pIC50 [1] of the same compound?
A: Its pIC50 is < 4.30.

Q: And the pIC50 [2]?
A: The pIC50 was < 4.50.

Q: What about the logD (physchem) of the same compound?
A: Its logD is 1.75.

Q: With `Cc1nc(C)n(-c2cccc([C@H](CC(=O)O)CN3CC[C@@H](CCc4ccc5c(n4)NCCC5)C3)c2)n1` as the compound, how does the pIC50 [1] read?
A: Its pIC50 is < 4.30.

Q: And the pIC50 [2]?
A: Its pIC50 is < 4.50.

Q: What about the logD (physchem) of the same compound?
A: The logD was 1.66.

Q: With `Cc1cn(C)c(-c2cccc([C@H](CC(=O)O)CN3CC[C@@H](CCc4ccc5c(n4)NCCC5)C3)c2)n1` as the compound, how does the pIC50 [1] read?
A: The pIC50 was < 4.30.

Q: And the pIC50 [2]?
A: Its pIC50 is < 4.50.

Q: What about the logD (physchem) of the same compound?
A: The logD was 2.09.

Q: For `O=C(O)C[C@H](CN1CC[C@@H](CCc2ccc3c(n2)NCCC3)C1)c1cccc(C2CCOCC2)c1`, which logD (physchem) is on record?
A: Its logD is 2.62.

Q: For `O=C(O)C[C@H](CN1CC[C@@H](CCc2ccc3c(n2)NCCC3)C1)c1cccc(C2CC2)c1`, which Activity [4] is on record?
A: The Activity was “Dose-dependent effect”.
